Assay results reported in patent US5990170A, “Therapeutic use of mono and bicarboxylic acid amides active at the peripheral cannabinoid receptor” (Lifegroup S.p.A., priority 1994, dated 1999).
pEC50, pIC50: −log10 of the molar value. Where two headings read alike, the source gives them in different places.

Tests used:
RBL-2H3 cells = assay: Inhibition of 3H-serotonin release induced by ADNP/DNP-HSA immunogenic stimulation in RBL-2H3 cells; type: cell-based, rat; settings: for inhibition at 100 µM: 100 μM (Table 8); for pEC50: 15 minutes release period (Table 9); for inhibition at 30 µM: 30 μM (Table 8); for activity at 100 µM: RBL-2H3, 0.25 h, 0.1% DMSO and 0.1% ethanol (Table 3), read-out: 3H-serotonin net release (%); for effect of anandamide co-incubation on the ability to inhibit serotonin release: co-incubation with anandamide, in words; for pIC50: read-out: ED50, inhibition of 3H-serotonin release, 15 min
[1] = Solubility in water and organic solvents; settings: for solubility: organic solvent or mixture; for solubility in water: result in words
[2] = Rattus norvegicus, RBL-2H3, read-out: 3H-serotonin release inhibition %, 0.2% DMSO
[3] = Rattus norvegicus, RBL-2H3, read-out: 3H-serotonin release inhibition %, 1% DMSO
[4] = Rattus norvegicus, RBL-2H3, read-out: EC50, concentration inhibiting by 50% the net release of 3H serotonin, 0.2% DMSO
[5] = Rattus norvegicus, RBL-2H3, read-out: EC50, concentration inhibiting by 50% the net release of 3H serotonin, 1% DMSO

| solubility ([1]; n-octanol) | Structure (SMILES) | inhibition at 100 µM (RBL-2H3 cells; [2]) | inhibition at 100 µM (RBL-2H3 cells; [3]) | pEC50 (RBL-2H3 cells; [4]) | pEC50 (RBL-2H3 cells; [5]) | solubility ([1]; dmso) | solubility ([1]; ethanol) | solubility in water [1] | inhibition at 30 µM (RBL-2H3 cells; [2]) | activity at 100 µM (RBL-2H3 cells; Rattus norvegicus) | effect of anandamide co-incubation on the ability to inhibit serotonin release (RBL-2H3 cells) | solubility ([1]; chloroform) | pIC50 (RBL-2H3 cells; + anandamide (12.5 μM) (Table 5)) | pIC50 (RBL-2H3 cells; - anandamide (Table 5)) | inhibition at 200 µM (RBL-2H3 cells; Rattus norvegicus, RBL-2H3, read-out: 3H-serotonin release inhibition %, 0.2% DMSO, 200 μM (Table 8)) |
| --- | --- | --- | --- | --- | --- | --- | --- | --- | --- | --- | --- | --- | --- | --- | --- |
|  | CCCCCCCCCCCCCCCC(=O)N[C@H](CO)c1ccccc1 [Example 2, N-palmitoyl-[(S)-2-amino-2-phenylethanol]] | 100% | 100% | 5.74 | 5.30 | > 10000 µg/mL | > 10000 µg/mL | scarcely soluble |  |  |  |  |  |  |  |
|  | CCCCCCCCCCCCCCCC(=O)NCC(O)c1ccccc1 (stereo not drawn) [Example 3, N-(2-hydroxy-2-phenylethyl)-palmitoylamide] | 100% | 100% | 5.92 | 5.40 | > 10000 µg/mL | > 10000 µg/mL | scarcely soluble |  |  |  |  |  |  |  |
|  | CCCCCCCCCCCCCCCC(=O)N[C@@H](CO)[C@@H](O)c1ccccc1 [Example 4, N-palmitoyl-[(1S,2S)-(+)-2-amino-1-phenyl-1,3-propanediol]] | 100% | 100% | 4.11 | 5.98 | > 10000 µg/mL | > 10000 µg/mL | scarcely soluble |  |  |  |  |  |  |  |
|  | CCCCCCCCCCCCCCCC(=O)N[C@H](C)[C@@H](O)c1ccccc1 [Example 5, N-palmitoyl-[(1S,2R)-(+)-norephedrine]] |  | 100% | 5.10 | 5.12 | > 10000 µg/mL | > 10000 µg/mL | scarcely soluble | 82% |  |  |  |  |  |  |
|  | CCCCCCCCCCCC(=O)N[C@H](C)[C@@H](O)c1ccccc1 [Example 6, N-lauroyl-[(1S,2R)-(+)-norephedrine]] |  |  | 4.52 | 5.06 | > 10000 µg/mL | > 10000 µg/mL | scarcely soluble |  |  |  |  |  |  |  |
|  | CCCCCCCCCCCCCCCC(=O)N[C@@H](C)[C@H](O)c1ccccc1 [Example 7, N-palmitoyl-[(1R,2S)-(-)-norephedrine]] |  | 100% | 5.33 |  | > 10000 µg/mL | > 10000 µg/mL | scarcely soluble | 93% |  |  |  |  |  |  |
|  | CCCCCCCCCCCC(=O)N[C@@H](C)[C@H](O)c1ccccc1 [Example 8, N-lauroyl-[(1R,2S)-(-)-norephedrine]] |  |  | 4.74 |  | > 10000 µg/mL | > 10000 µg/mL | scarcely soluble |  |  |  |  |  |  |  |
|  | CCCCCCCCCCCCCCCC(=O)N[C@H](CO)Cc1ccccc1 [Example 9, N-palmitoyl-[(S)-(-)-2-amino-3-phenyl-1-propanol]] | 100% |  |  |  |  |  | scarcely soluble |  | 0% | reduces the ability | > 10000 µg/mL |  |  |  |
|  | CCCCCCCCCCCCCCCC(=O)N[C@@H](CO)Cc1ccccc1 [Example 10, N-palmitoyl-[(R)-(+)-2-amino-3-phenyl-1-propanol]] |  |  |  |  |  |  | scarcely soluble |  | 0% | reduces the ability | > 10000 µg/mL |  |  |  |
|  | CCCCCCCCCCCC(=O)NCCc1ccc(O)cc1 [Example 11, N-(p-hydroxyphenylethyl)-lauroylamide] |  |  | 4.59 |  | > 10000 µg/mL | > 10000 µg/mL | scarcely soluble |  |  |  |  |  |  |  |
|  | CCCCCCCCCCCC(=O)NCCCO [Example 12, N-(3-hydroxypropyl)-lauroylamide] | 86% | 100% | 4.36 | 5.96 | > 10000 µg/mL | > 10000 µg/mL | scarcely soluble |  |  |  |  | 4.54 | 5.96 |  |
|  | O=C(/C=C/CCCCCCCCC(=O)NCCCO)NCCCO [Example 13, N,N'-bis(3-hydroxypropyl)-trans-2-dodecenediamide] |  |  |  | 4.49 | > 5000 µg/mL |  | scarcely soluble |  |  |  |  |  |  | 65% |
| > 10000 µg/mL | CCCCCCCCCCCCCCCC(=O)N(C)CCO [Example 14, N-methyl-N-(2-hydroxyethyl)-palmitoylamide] |  |  |  |  | > 10000 µg/mL |  | scarcely soluble |  |  |  |  |  |  |  |
